Marks after values point to notes of the source that are not given here.
What was measured:
[1] = test system: estrus and ovulation in mares; details: prior knowledge; cited from earlier work
[2] = test system: injection site swelling in mares; experiment: Injection site assessment (swelling score 0-3) in mares; format: in vivo, mares (equine); details: compared to controls (FIG. 1)
Procedure: (§1) Injection site assessments are made on days 0, 1, 3, 6, and 9 post-treatment. Scores are based on a subjective scale of 0-3. Zero means no swelling; one means slight diameter swelling (i.e. about 12.5 mm); 2 means moderate diameter swelling (i.e. about 12.5 to 25 mm); and 3 means significant swelling (i.e. more than 25 mm). Plasma concentrations of progesterone are measured with commercially available reagents (Diagnostic Systems Laboratories, Webster, Tex.). Intra- and interassay CV and assay sensitivities are 5%, 8%, and 0.1 ng/mL. Data are analyzed by the Proc Mixed procedure of SAS (SAS Institute Inc., Cary, N.C.). Single point variables are analyzed via a one way ANOVA. Data from injection site scores are analyzed for effects of treatment, time, and treatment by time interactions with repeated measures. When a significant F is detected (P<0.05), the least significant difference (LSD) test is used to determine differences between groups within times.

[3] = test system: estrus and ovulation in light-horse mares; experiment: Suppression of estrus and ovulation in mares after a single sustained release injection; format: in vivo, mares (equine)
Procedure: Thirty one randomly selected light-horse mares are maintained on native pasture and ad libitum hay. Verification of normal reproductive cyclicity is determined by follicular ultrasound, teasing with a vigorous stallion, and radioimmunoassay of plasma progesterone concentrations. Mares displaying estrus (i.e. the estrus mare group) with plasma progesterone levels below 1 ng/mL are followed by ultrasound until a follicle 30 mm or greater is determined. When a follicle reaches 30 mm, 2 mL of 2000 IU human chorionic gonadotropin is administered to induce ovulation. Mares in the estrus group are subsequently followed by ultrasound until ovulation and corpus luteal formation are verified. Six days after ovulation is determined, mares in this group are given a 2 mL injection of dinoprost tromethamine and randomly assigned to a treatment regime set forth in Table 1.
Mares not displaying estrus (i.e. the non-estrus mare group) with progesterone concentrations above 1 ng/mL and the presence of a corpus luteum verified by ultrasound are given 2 mL dinoprost tromethamine. Once estrus is detected by teasing with a stallion, these mares are treated as the mares assigned to the estrus mare group. […]
The mares of each of the groups in Table 1 are followed via ultrasound every other day after treatment until a follicle 25 mm or greater is detected. […]
as §1, with “Scores are based on a subjective scale of 0-3. Zero means no swelling; one means slight diameter swelling (i.e. about 12.5 mm); 2 means moderate diameter swelling (i.e. about 12.5 to 25 mm); and 3 means significant swelling (i.e. more than 25 mm).” left out, “Intra- and interassay CV and assay sensitivities are 5%, 8%, and 0.1 ng/mL.” left out

Row | SMILES | Effect on estrus and ovulation (background, in words) [1] | Injection site swelling / biocompatibility (in words) [2] | Effectiveness at delaying estrus and ovulation (in words) ([3]; compared to controls) | Days to ovulation ([3]; relative to administration of dinoprost tromethamine and treatment, mean ± SE) | Days to estrus ([3]; single injection on d0 together with 2 mL dinoprost tromethamine, mean ± SE)
1 | C=CC[C@]1(O)CC[C@H]2[C@@H]3CCC4=CC(=O)CCC4=C3C=C[C@@]21C [Altrenogest, 17-α-Allyl-17-β-hydroxyoestra-4,9,11-trien-3-one] | suppress estrus and ovulation |  |  |  | 
2 | CC(=O)O[C@]1(C(C)=O)CC[C@H]2[C@@H]3C[C@H](C)C4=CC(=O)CC[C@]4(C)[C@H]3CC[C@@]21C [Medroxyprogesterone, Medroxyprogesterone acetate] | not to effect estrus, ovulation or pregnancy maintenance | most biocompatible formulation | not effective at delaying estrus or ovulation | 11.3 ± 2.14^a days | 6.2 ± 1.38^a days
3 | CC(=O)[C@H]1CC[C@H]2[C@@H]3CCC4=CC(=O)CC[C@]4(C)[C@H]3CC[C@]12C [progesterone] | suppress estrus and ovulation |  |  |  | 
